Test results from patent US10844354B2, “Cardiomyocyte maturation” (Ncardia B.V., priority 2014, dated 2020).

Test system: stem-cell derived cardiomyocytes
Assay: Perforated patch clamp action potential measurement of spontaneously beating stem-cell derived cardiomyocytes
Type: cell-based, human
Conditions: induced pluripotent stem cell derived cardiomyocytes
Experimental: Differentiated (fetal-like/immature) human stem-cell derived cardiomyocytes were subsequently cultured and allowed to mature as described below, although any other method in the art may suitable be used. Tissue culture plastic was coated using Matrigel (Corning) at a concentration of 1/100 in DMEM, for 45 min at room temperature. A single cell suspension coming from dissociated embryoid bodies, dissociated monolayers or (commercially obtained) frozen (fetal-like (immature)) stem-cell derived cardiomyocytes were seeded at an appropriate density on matrigel coated tissue culture plastic (e.g. in 20-40 k cells per well of a 96-well plate, e.g. 20-200 k per well of a 12 well plate). On day 1 following plating, the foetal-like (immature) cardiomyocytes were exposed to a culture medium composition of the invention, which consists of a serum-free culture medium composition comprising 50 ng/ml of T3 (Sigma T6397), 2 mM of carnitine, 5 mM of creatine, 5 mM of taurine, 2.2 microgram/ml of cholesterol, 0.1 microgram/ml of linoleic acid, 0.1 microgram/ml of linolenic acid, 0.1 microgram/ml of palmitic acid (lipids, for example, from Gibco 11905), 10 mg/ml of insulin, 5.5 mg/ml of transferrin, 0.0067 mg/ml of selenium (insulin, transferrin and selenium from e.g. Gibco 51500), 0.01% of trace element mix B (as described herein; Cellgro 99-175-CL), 0.1% of trace element mix C (as described herein; Cellgro 99-176-CL), 0.5 w/w % of antibiotics (penicillin-streptomycin mixture commercially available Gibco (Gibco 12070; 5000 U/ML), 0.05 mg/ml ascorbic acid, 2 mM of Glutamax supplement (i.e. L-alanyl-L-glutamine dipeptide in 0.85% NaCl, commercially available at Gibco, e.g. Gibco 35050), 0.125 w/w % polyvinylalcohol (PVA), 450 nM of alpha monothiolglycerol (MTG) (commercially available), 025 w/w %/o BSA (Bovostar BSAS1.0) in 46.5% (w/w) IMDM (Gibco 21056) and 46.5% (w/w) HAM F-12 with glutamax (Gibco 31765). All concentrations are expressed as final concentration in the culture medium composition. This step was repeated every 2-3 days. In those experiments that also use thyroid hormone or a thyroid hormone analog, treatment with the culture medium composition as taught herein comprising e.g. T3 started either at day 1, day 3 or day 7 post plating.
At day 10 dbcAMP was added to a final concentration of 0.5 mM and the cell were further cultured. Action potential measurements of control and dbcAMP treated cells were performed using the patch clamp technique at 24, 48 and 72-hours post addition of the cAMP-raising compound.
Electrophysiology of the cells treated with the cAMP-raising compound or not was determined by standard techniques in the art, in particular with the method as described by for example, Bellin et al. (EMBO J. 2013; 32(24): 3161-3175), with the modification that in the examples provide herein spontaneous activity of the stem-cell derived cardiomyocytes was determined and no electric stimulation was required, although measurement may, as the skilled person knows, also be done under conditions of stimulation. Action potentials from small groups of cells (5-10 cells) were measured with the perforated patch clamp technique using an Axopatch 200b amplifier (Molecular Devices) and low resistance patch pipettes (1.5-2.5 MΩ). Data acquisition and analyses of action potentials were performed with pClamp 10 (axon instruments) and custom made software. Action Potentials were corrected for the calculated liquid junction potential (−15 mV).
Action potential from spontaneous beating cells were measured at 37±0.20 C using a modified Tyrode's solution containing (in mM): 140 NaCl, 5.4 KCl, 1.8 CaCl2, 1.0 MgCl2, 5.5 glucose, 5.0 HEPES; pH7.2 (NaOH).
The pipette solution contained (in mM): 125 K-gluconate, 20 KCl, 5 NaCl, 0.22 amphotericin-B, 10 HEPES; pH 7.2 (KOH). […]

CCCC(=O)Nc1ncnc2c1ncn2[C@@H]1O[C@@H]2COP(=O)(O)O[C@H]2[C@H]1OC(=O)CCC [dbcAMP, N6,2′-O-dibutyryladenosine 3′,5′-cyclic monophosphate]
upstroke velocity (0.5 mM dbcAMP for 24, 48 and 72 hrs vs non-treated, FIG. 1): improved the upstroke velocity dramatically | resting membrane potential (liquid junction potential corrected) (0.5 mM dbcAMP for 24, 48 and 72 hrs vs non-treated, FIG. 2): improved the resting membrane potential dramatically | representative action potentials (dbcAMP for 24, 48 and 72 hrs vs non-treated, FIG. 3): action potentials that are more adult cardiomyocyte like | amplitude (dbcAMP for 24, 48 and 72 hrs vs non-treated, FIG. 4): improves the amplitude | repolarization parameters (dbcAMP for 24, 48 and 72 hrs vs non-treated, FIG. 5): improves the repolarization parameters | representative action potentials (dbcAMP for 72 hrs vs non-treated, FIG. 6): action potentials that are more adult cardiomyocyte like
